# Numbers after ± are expanded uncertainties.
# Details: Liquid; for viscosity: 101.3 kPa, Falling or rolling sphere viscometry; for mass density: 101.33 kPa, Vibrating tube method
SMILES,viscosity (293.15 K),viscosity (298.15 K),mass density (298.15 K),viscosity (303.15 K),viscosity (313.15 K)
CCCCCC [hexane],0.313 ± 0.02 mPa·s,0.301 ± 0.02 mPa·s,654.8 ± 0.3 kg/m3,0.282 ± 0.02 mPa·s,0.258 ± 0.02 mPa·s
CCCCCCCC [octane],0.545 ± 0.021 mPa·s,0.513 ± 0.021 mPa·s,698.5 ± 0.4 kg/m3,0.484 ± 0.02 mPa·s,0.434 ± 0.02 mPa·s

# — the NIST ThermoML archive (doi:10.1021/je020131a)
